Measured values as given in US20040126359A1, “Hedgehog” (priority 2001, published 2004).

Columns and labels:
CD4+ T-cells [1] = experiment: Taqman real time PCR of Shh, Ihh, HIP and Ptc expression in CD4+ T-cells (FIGS. 14, 15, 17); format: cell-based
Description: Expression in medium, in the presence of 50 ng/ml IL-10 and in the presence of 50 ng/ml IFN-γ was compared to expression in resting CD4+ T-cells;
Similar experiments were used to study the expression of Shh (FIG. 4) and Ptc (FIG. 5) in T-cells and the expression of components of the Hh signalling pathway in lymphoid tissues (FIG. 6). FIG. 14 illustrates the results of an RT-PCR analysis of Shh, Ihh, Hip and Ptc expression. Activation of T-cells induced a sustained and marked (approximately 80-fold) increase in Shh mRNA, peaking at 44 and 72 hours. It lead to a downregulation of Ptc.

CD4+ T-cells [2] = experiment: Cell cycle analysis (propidium iodide, Vindelov method); format: cell-based, mouse
Description: CD4^+ T-cells were cultured in RPMI 1640 medium (Life Technologies, Paisley, UK) supplemented with 10% FCS (Life Technologies), 2 mM L-glutamine, (Sigma, Dorset, UK), 20 μg/ml penicillin/streptomycin (Life Technologies) and […] 2-mercaptoethanol (Sigma). Anti-CD3/28 antibody activation was carried out at 2 concentrations, namely ‘sub-optimal’ (anti-CD3 at 0.25 μg/ml and anti-CD28 at 0.1 μg/ml) and ‘optimal’ (anti-CD3 at 1 μg/ml and anti-CD28 at 5 μg/ml). Tissue culture plates (Corning Inc., NY, USA) were coated with the anti-CD3 antibody for 90 min at 37° C. prior to addition of the CD4^+ T-cells. Recombinant mouse Shh amino-terminal peptide (R&D systems Europe Ltd, Abingdon, UK) was added into cultures at a concentration of 500 ng/ml. 5E1 antibody was used at either 20 μg/ml or 50 μg/ml and the isotype control was used at 20 μg/ml. The concentrations used were based on results of dose response curves (data not shown).
(§1) The CD4^+ T-cells were cultured as above in 48-well plates with and without addition of exogenous Shh or 5E1. At 72 hr post-activation, the cells were spun at 13,000 rpm for 7 min then re-suspended in citrate buffer. Cell cycle analysis was carried out using the Vindelov method (Vindelov et al, 1990). Briefly, the cells were trypsinized (Sigma) to expose the nucleus before being stained with propidium iodide (Sigma). Cell cycle analysis was then performed on an Epics© XL flow cytometer (Beckman Coulter UK Ltd, Bucks, UK). The machine counted 30,000 nuclei in each sample and the software analysed the % of cells in each stage of the cell cycle sub-G1, G1, S phase and G2/M. From these figures, the % of live cells (G1, S and G2/M) was calculated, and from this, the % of live cells in G1 and S/G2 phases.
The effect of Shh on CD4^+ T-cell proliferation was investigated further using cell cycle analysis to allow us to examine if Shh affected cell survival or promoted entry in the S/G2 proliferative phase of the cell cycle. As with the ^3H-TdR incorporation studies, this analysis was carried out on resting CD4^+ T-cells and those optimally and sub-optimally activated. Exogenous Shh was added at the time of (t=0) or 24 hr before (t=−24 hr) anti-CD3/28 antibody activation and the T-cells were analysed 72 hr later. In the case of resting CD4^+ T-cells, Shh peptide was added at t=0, and the cells were analysed at 24 hr, 48 hr and 72 hrs. The % cells distributed in sub-G1, G1, S and G2 phases of the cell cycle was analysed, and from this the % live cells in G1 and S/G2 phases was calculated.

Gli2-/Gli3- mice cells = experiment: Cell cycle / survival analysis in Gli2-/Gli3- mice cells; format: cell-based, mouse; conditions: Shh 10 and 500 ng/ml
Description: Cell survival was measured in Gli2^−/Gli3^− mice cells (i.e. from mice in which one allele each of Gli2 and Gli3 were deleted from the genome) in the presence (10 ng/ml and 500 ng/ml) and absence of Shh;
as §1

[3] = Shh added to activated T-cell cultures
[4] = optimally activated, Shh 24 hr prior to activation
[5] = sub-optimally activated, Shh peptide at t=0

For “Shh peptide: Recombinant mouse Shh amino-terminal peptide (R&D systems); biologically active N-terminal Sonic hedgehog fragment”, the Hip expression (CD4+ T-cells [1]; [3]) was “up-regulated”, the Ihh expression (CD4+ T-cells [1]; [3]) was “down-” and the “effect on Ptc downregulation” value (CD4+ T-cells [1]; activated T-cells, Shh addition) was “does not appear to affect”. For the same substance, the “Shh mRNA expression” value (CD4+ T-cells [1]; activated T-cells, Shh addition, 24 hours, 40 cycles of PCR (limit of assay)) was “no signal is detected”, the “effect on cell cycle progression, direct addition on its own” value (CD4+ T-cells [2]; FIG. 13, Shh 10 and 500 ng/ml, relative to the anti-Shh effect) was “slight effect in the opposite direction” and the “% increase in live cells in S/G2 phase, range” value (CD4+ T-cells [2]; optimally activated (anti-CD3 1 μg/ml, anti-CD28 5 μg/ml), Shh at t=0, 72 hr) was 9%-144%. For the same substance, the “% of live cells with and without Shh” value (CD4+ T-cells [2]; [4]) was “very similar”, the “increase in cells in S/G2 phase, range” value (CD4+ T-cells [2]; [4]) was 53.1%-97.1% and the “increase in cells in S/G2 phase, mean” value (CD4+ T-cells [2]; optimally activated, Shh 24 hr prior to activation, n=3, p<0.01) was 71.5%. For the same substance, the “% of live cells with and without Shh” value (CD4+ T-cells [2]; optimally activated, Shh at t=0) was “very similar”, the “% increase in live cells in S/G2 phase, mean” value (CD4+ T-cells [2]; optimally activated, Shh at t=0, n=3, not statistically significant) was 63.7% and the “difference in % of cells in S/G2 phase” value (CD4+ T-cells [2]; resting CD4+ T-cells, Shh 500 ng/ml) was “negligible”. For the same substance, the “effect on cell survival” value (CD4+ T-cells [2]; resting CD4+ T-cells, Shh 500 ng/ml, 24, 48, 72 hr) was “minimal effects”, the “increase in % of live cells entering S/G2 phase, range” value (CD4+ T-cells [2]; sub-optimally activated, Shh peptide 24 hr prior to activation) was 34.6%-110% and the “increase in % of live cells entering S/G2 phase, mean” value (CD4+ T-cells [2]; sub-optimally activated, Shh peptide 24 hr prior to activation, n=3, p<0.03) was 61.5%. The “% of live CD4+ T-cells” value (CD4+ T-cells [2]; sub-optimally activated, Shh peptide 24 hr prior to activation, p<0.02) was “increase”, the “% increase in live cells in S/G2 phase, range” value (CD4+ T-cells [2]; [5]) was 27.8%-77.8% and the “% live cells with and without Shh” value (CD4+ T-cells [2]; [5]) was “similar”. For the same substance, the “% increase in live cells in S/G2 phase, mean” value (CD4+ T-cells [2]; sub-optimally activated, Shh peptide at t=0, n=3, p<0.02) was 55.8% and the “effect on survival / apoptosis (live cells, sub-G1 pool)” value (Gli2-/Gli3- mice cells) was “promotes apoptosis”.
